“Also recorded” adds a separate entry of the source. Like-named read-outs stand apart in the source and are kept apart here.

From patent publication US10322124B2, “6-hydroxy-2,5,7,8-tetramethylchroman-compounds for the treatment of chronic obstructive airway diseases” (Sulfateq B.V., priority 2014, dated 2019) come the findings set out here.

Series [1] deals with hTERT cells. The series is described as follows: Trypan blue cell counting (cell viability). In kind it is cell-based, human. The conditions noted are these: 24 hours, absence or presence of 15% CSE, trypan blue counting (FIG. 1). An excerpt: (§1) In this example, the effects of […] H2S compounds, i.e. SUL90, SUL121 were studied on: • 1) The cell viability of human (immortalized) airway smooth muscle cells (hTERT cells), • 2) The release of the inflammation mediator IL-8 from hTERT cells, • 3) Airway smooth muscle contractility of bovine trachea smooth muscle strips. The samples used were: • Two SUL-compounds: SUL90, SUL121; • Human telomerase reverse transcriptase immortalized airway smooth muscles (hTERT) cells, cultured as previously described (Oldenburger et al., 2012). Prior to the experiments, cells were serum-deprived for 1 day, followed by cell treatment with the indicated concentrations of the SUL-compounds in the absence and presence of 15% cigarette smoke extract (CSE) for additional 24 hours. As controls, 1 μM fenoterol and 500 μM of the H2S donor NaHS were used. • 100% cigarette smoke extract (CSE), freshly made by combusting (Watson Marlow 323 E/D, Rotterdam, The Netherlands) the smoke of two research cigarettes (University of Kentucky 2R4F) through 25 mL of DMEM (FBS-free) at a speed of approximately 1 cigarette/5 minutes. Afterwards, CSE was diluted to 15% (Oldenburger et al., 2012).
(§2) For cell-based studies, the SUL compounds were dissolved in 0.9% NaCl as 1 mM stock solutions. For the isometric tension measurements, the SUL compounds were dissolved in 100% DMSO as 100 mM stock solution.
Assay 1: Trypan Blue Cell Counting
For cell viability measurements, trypan blue cell counting was performed as previously described (Oldenburger et al., 2012). As control, 500 μM of the H2S donor NaHS was used. Alternatively, alamar blue measurements were performed to determine cell viability essentially as described before (Oldenburger et al., 2012).
Briefly, hTERT cells were plated on 24-well plates as a cell density of 10,000 cells/well. Again cells were serum-deprived for 1 day, followed by cell treatment with the indicated concentrations of the SUL-compounds in the absence and presence of 15% cigarette smoke extract (CSE) for additional 24 hours.

For series [2], the system named is IL-8 release from hTERT cells. Briefly: Release of interleukin-8 (IL-8) from hTERT cells exposed to CSE. In kind it is cell-based, human. The conditions noted are these: 24 hours, 15% CSE, ELISA (FIG. 2).
Text: as §1, §2
Assay 2: Release of interleukin-8 (IL-8) from hTERT Cells
This assay was used to determine the release of interleukin-8 from hTERT cells, fenoterol (1 μM) and the H2S donor (500 μM) served as controls. 24 hours after cell stimulation with the indicated concentrations of the SUL-compounds in the absence and presence of 15% CSW, culture medium was collected to measure the IL-8 concentration in the cell supernatants according to the manufacturer's instructions (PeliKine Compact ELISA kit, Sanquin, The Netherlands), as previously described (Oldenburger et al., 2012.
For orientation: An ELISA detects its analyte on a solid surface through an enzyme-linked reagent.

Series [3] concerns bovine trachea smooth muscle (BTSM) strips. Briefly: Bovine trachea smooth muscle (BTSM) strips, isometric tension measurements. As to conditions: for effect of the ß2-adrenoceptor antagonist propranolol on the relaxation of BTSM strips induced by the compound: 1 μM propranolol, 30 minutes prior (FIG. 4); for shift of the dose response curve for isoprenaline (isoprenaline-induced relaxation): BTSM strips pre-incubated with compound at 30 μM (FIG. 5); for contraction induced by methacholine: BTSM strips pre-incubated with compound at 30 μM, methacholine dose response curve (FIG. 6); for EC50: Bos taurus, relaxation of methacholine-pre-contracted BTSM strips, mean ± SEM, 3 determinations; for relaxation of methacholine-pre-contracted BTSM strips: accumulative doses 1-300 μM, strips pre-contracted with methacholine (FIG. 3); for isometric tension of BTSM strips at 30 μM: concentration of 30 μM. The protocol:
as §2
Assay 3: Bovein Trachea Smooth Muscle (BTSM) Strips and Isometric Tension Measurements
Isometric tension measurements were performed as described previously (Roscioni et al., 2011: Roscioni, Prins et al., 2011). BTSM strips were mounted for isometric recording in organ-baths, containing Krebs-Henseleit (KH) buffer, containing in mM: […], 25 NaHCO3, 5.5 glucose, 5.6 KCl, 1.18 MgSO4, 2.50 CaCl2, 1.28 NaH2PO4, pre-gasses with 5% of CO2 and 95% O2, pH 7.4. After dissection of the smooth muscle layer and careful removal of connective tissue, BTSM strips of approximately 1 cm length and 2 mm width were prepared. Tissue strips were cultured in DMEM supplemented with non-essential amino acid mixture (1:100), sodium pyruvate (1 mM), gentamicin (45 μg*ml−1), penicillin (100 U*ml−1), streptomycin 100 μg*ml−1, amphotericin B (1.5 μg*ml−1) apo-transferrin (5 μg*ml−1) and ascorbic acid (100 μM). The BTSM strips were cultured for 1-3 days before isometric tension measurement in an Innova 4000 incubator shaker 37° C. 55 rpm).
For isometric tension measurements (Roscioni et al., 2011: Roscioni, Prins et al., 2011). BTSM strips were calibrated, were mounted into the transducers and submerged into the organ baths in pre-gassed KH buffer. Each strip was adjusted to a basal tension of 3 gram. Then, the strips were washed, equilibrated again for 60 minutes, followed by pre-contractions induced by 1×10-3.5 μM methacholine. To analyze acute effects of the SUL-compounds on the isometric tension, the strips were incubated with accumulative doses of the SUL-compounds (1-300 μM), followed by the addition of 0.01 μM isoprenaline.
To analyze potential role of the ß2-AR in the effects induced by the SUL-compounds, the strips were incubated with 1 μM propranonol for 30 minutes prior addition of the SUL-compounds. To analyze potential effects of the SUL-compounds on the isoprenaline-induced relaxation, the strips were first incubated with the SUL-compounds (30 μM each), followed by the addition of accumulative doses of isoprenaline (1×10.5-1 μM). Finally, to analyze potential effects of the SUL-compounds on the methacholine-induced contraction, the strips were first incubated with the SUL-compounds (30 μM each), followed by addition of accumulative doses of methacholine (0.001-30 μM), before the addition of 0.01 μM isoprenaline.
Data are shown are mean±standard error of the mean. One-way ANOVA followed by Bonferroni post hoc test, 2-tailed paired t-test, two-way ANOVA was used when appropriate to identify statistical difference between means. A statistical difference was defined as significant at p<0.05.

Where [4] appears, read: 1 μM propranolol pre-incubation, read-out: pD2, Propranolol (converted).
The mark [5] stands for this setting: solvent treated, read-out: pD2, Solvent (converted).

As for `Cc1c(C)c2c(c(C)c1O)CCC(C)(C(=O)N1CCNCC1)O2` (centres unmarked) [Sul-121, (6-hydroxy-2,5,7,8-tetramethylchroman-2-yl)(piperazin-1-yl)methanone], the “cell viability of hTERT cells” value is on record as “do not severely alter cell viability” in series [1] (listed as SUL121) and “seem not to severely alter the cell viability” in series [1] (listed as SUL-121). For the same compound, the “CSE-induced IL-8 release from hTERT cells” value is “significantly reduce the release; also recorded: inhibit CSE-induced IL-8 release” in series [2] and “inhibit the cellular IL-8 release” in series [2] (listed as SUL121). For the same compound, the “effect of the ß2-adrenoceptor antagonist propranolol on the relaxation of BTSM strips induced by the compound” value in series [3] was “not affected by propranolol; also recorded: does not alter the relaxation”; in series [3] (listed as SUL121), “ß2-adrenoceptor-independent”. The “shift of the dose response curve for isoprenaline (isoprenaline-induced relaxation)” value in series [3] is “significant right-ward shift; also recorded: shifts the dose response curve or isoprenaline to the right”; in series [3] (listed as SUL212), “right-ward shift”. Moreover, the entries for the “contraction induced by methacholine” value in series [3], in series [3] (listed as SUL121) and in series [3] (listed as Sul121) were “decrease the contraction”, “significantly reduce the contraction” and “reduced the contraction”, respectively. In addition, the EC50 in series [3] (setting [4]) and in series [3] (setting [5]) was 316 µM throughout. In series [3], the “relaxation of methacholine-pre-contracted BTSM strips” value was “even more pronounced relaxation, reaching statistical significance; also recorded: induce relaxation”. In series [3], the “isometric tension of BTSM strips at 30 μM” value is recorded as “leave the isometric tension unaffected”.
Consider `Cc1c(C)c2c(c(C)c1O)CCC(C)(C(=O)NO)O2` (centres unmarked) [Sul-90, N,6-dihydroxy-2,5,7,8-tetramethylchroman-2-carboxamide], for which the “cell viability of hTERT cells” value in series [1] (listed as SUL90) is recorded as “do not severely alter cell viability”; in series [1] (listed as SUL-90), “seem not to severely alter the cell viability”. For the same compound, the “CSE-induced IL-8 release from hTERT cells” value in series [2] is “significantly reduce the release; also recorded: inhibit CSE-induced IL-8 release”; in series [2] (listed as SUL90) it was “inhibit the cellular IL-8 release”. For the same compound, the “effect of the ß2-adrenoceptor antagonist propranolol on the relaxation of BTSM strips induced by the compound” value is reported as “trend to a left-ward shift; also recorded: does not alter the relaxation” in series [3], “ß2-adrenoceptor-independent” in series [3] (listed as SUL90) and “not affected by propranolol” in series [3] (listed as Sul90). Also, in series [3], the “shift of the dose response curve for isoprenaline (isoprenaline-induced relaxation)” value is recorded as “not”. For the same compound, the figures for the “contraction induced by methacholine” value in series [3] and in series [3] (listed as SUL90) were “reduced the contraction; also recorded: decrease the contraction” and “significantly reduce the contraction”, respectively. Further, the EC50 was 316 µM in series [3] (setting [4]) and 398 µM in series [3] (setting [5]). Moreover, the “relaxation of methacholine-pre-contracted BTSM strips” value in series [3] is “shows a trend to induce relaxation”. The “isometric tension of BTSM strips at 30 μM” value in series [3] was “leave the isometric tension unaffected”. The “concentrations at which a trend to relaxation of BTSM strips is shown” value in series [3] (methacholine-pre-contracted BTSM strips (FIG. 3)) was “higher than 100 μM”.
Regarding `Cc1c(C)c2c(c(C)c1O)CCC(C)(C(=O)N1CCN(CC(=O)O)CC1)O2` (centres unmarked) [Sul-136, 2-(4-(6-hydroxy-2,5,7,8-tetramethylchroman-2-carbonyl)piperazin-1-yl)acetic acid], the “cell viability of hTERT cells” value in series [1] was “do not alter cell viability”. Besides, the “relaxation of methacholine-pre-contracted BTSM strips” value in series [3] is given as “do not alter the contractile tone”.
For the compound `CC(C)NCC(O)COc1cccc2ccccc12` (centres unmarked) [propranolol, reference compound], the “shift of the dose-response curve for isoprenaline by propranolol” value in series [3] (BTSM strips pre-incubated with 1 μM propranolol (FIG. 4)) is “right-ward shift”.
On to `CC(C)NCC(O)c1ccc(O)c(O)c1` (centres unmarked) [Isoprenaline, reference compound], for which the EC50 in series [3] (setting [4]) was 3.98 µM; in series [3] (setting [5]), 0.02 µM.
